Experimental data as given in patent US6359129B1, “Amino acid-derived, 7-membered cyclic sulfamides and methods of synthesizing the same” (University of Kansas, priority 2000, dated 2002).

Assays:
Format in all cases: biochemical
[1] = target: Herpes Simplex Virus Protease (Human herpesvirus 1, UniProt P10210); assay: Inhibition of Herpes Simplex Virus Protease; details: compound tested at 200 μmolar
Protocol: The inhibition of Herpes Simplex Virus Protease by the compound shown in Scheme R was determined according to the procedure described by Waxman et al., Antiviral Chemistry and Chemotherapy, 11:1-22 (1999); Qiu et al., Proteases of Infectious Agents, Academic Press, 93-115 (1999); and U.S. Pat. No. 6,008,033, each incorporated by reference herein.
The compound was tested at a concentration of 200 μmolar. [drawing 25]

HIV protease = target: T1, HIV protease (Human immunodeficiency virus type 1 group M subtype B, UniProt P04585); assay: Inhibition of HIV protease; details: compound at 99 μmolar
T1 construct: a key virally encoded protease enzyme of the pol gene
Protocol: The inhibition of HIV protease by the compounds shown in Scheme S (99 μmolar), Scheme T (99 μmolar), and Scheme U (99 μmolar) was determined following the procedure described by Maschera et al., Human Immunodeficiency Virus: Mutations in the Viral Protease that Confer Resistance to Saquinavir Increase the Dissociation Rate Constant for the Protease-Saquinavir Complex, J. Biol. Chem., 271:33231-35 (1996), incorporated by reference herein. [drawing 26] [drawing 27] [drawing 28]

human cathepsin K = target: T2, human cathepsin K (Homo sapiens, UniProt P43235); assay: Inhibition of human cathepsin K (fluorogenic peptide assay); details: compound at 106 μmolar; pH 5.5, 10 μmolar peptide, 32° C.
T2 sequence (P43235 115-329): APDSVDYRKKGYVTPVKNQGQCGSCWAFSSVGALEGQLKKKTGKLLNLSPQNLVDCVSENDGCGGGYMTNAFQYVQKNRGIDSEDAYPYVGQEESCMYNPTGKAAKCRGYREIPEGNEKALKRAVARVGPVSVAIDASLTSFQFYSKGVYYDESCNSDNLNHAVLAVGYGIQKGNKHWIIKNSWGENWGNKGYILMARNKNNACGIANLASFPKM
Protocol: The inhibition of human cathepsin K by the compounds shown in Schemes V (106 μmolar) and W (106 μmolar) was determined. [drawing 29] [drawing 30]
The peptides utilized were chromophoric Z-Phe-Arg-pNA*HCl and fluorogenic Z-Phe-Arg-AMC (each available from BACHEM Bioscience, Inc.). Stock solutions were prepared with 100% dimethylsulfoxide (DMSO) and stored at −20° C.
The final assay conditions were 100 mM NaOAc, pH of 5.5, 10 mM (R,R)-dithiothreitol (DTT), 10% DMSO, 120 mM NaCl, 10 μmolar of the peptide, and 12.5-0.012 μmolar inhibitor in twofold serial dilutions from 20× stocks in 100% DMSO. The enzyme working solution was a 1:3000 dilution of […] human cathepsin K into 100 mM of NaOAc, pH of 5.5, 10 mM DTT, 1.2 M NaCl.
Serial dilutions were performed in 100% DMSO. Columns 2-12 of an intermediate plate were filled with […] of 100% DMSO and column 1 was filled with […]. Next, […] of a 10 mM solution was added to column 1. […] The fluorescence was monitored every 6 minutes for 72 minutes using a CytoFluor Series 4000 PerSeptive Biosystems multi-well fluorescence plate reader with the following settings: gain=50; 20 reads/well; 32° C.; lex=360±20 nm; and lem=440±20 nm.

Herpes Simplex Virus Protease, sequence (P10210 1-247): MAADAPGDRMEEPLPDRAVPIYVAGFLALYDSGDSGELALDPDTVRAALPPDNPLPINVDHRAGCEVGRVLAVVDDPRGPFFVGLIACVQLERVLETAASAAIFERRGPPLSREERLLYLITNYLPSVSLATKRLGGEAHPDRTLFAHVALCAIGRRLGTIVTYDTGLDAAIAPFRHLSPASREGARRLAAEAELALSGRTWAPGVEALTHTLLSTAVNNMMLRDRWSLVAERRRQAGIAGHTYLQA

SMILES | inhibition at 99 µM (HIV protease) [%] | inhibition at 106 µM (human cathepsin K) [%] | further results
COC(=O)C(Cc1ccccc1)N1CC(O)C(O)CN(Cc2ccccc2)S1(=O)=O (stereo not drawn) [Scheme R] | – | – | inhibition at 200 µM [1]: 20.5%
CC(C)CC(COCc1ccccc1)N1CC=CCN(C(COCc2ccccc2)CC(C)C)S1(=O)=O (stereo not drawn) [Scheme S] | 96 | – | –
COC(=O)C(Cc1ccccc1)N1CC(O)C(O)CN(C(Cc2ccccc2)C(=O)OC)S1(=O)=O (stereo not drawn) [Scheme T] | 22 | – | –
COC(=O)C(Cc1ccccc1)N1CC(O)C(O)CN(Cc2ccccc2)S1(=O)=O (stereo not drawn) [Scheme U] | 21 | – | –
CC(C)CC(COCc1ccccc1)N1CC=CCN(C(COCc2ccccc2)CC(C)C)S1(=O)=O (stereo not drawn) [Scheme V] | – | 20 | –
CC(C)CC(C(=O)NO)N1CC=CCN(C(CC(C)C)C(=O)NO)S1(=O)=O (stereo not drawn) [Scheme W] | – | 14 | –
